Where a SMILES comes first, the peptide text is derived from it. [ ]: non-standard residue; d: D form. The star is where a group is joined. Dolaproine = CO[C@@H]([C@@H]1CCCN1)[C@@H](C)C(=O)O; Dil = CC[C@H](C)[C@H](NC)[C@@H](CC(=O)O)OC; X1 = C[C@@H](N*)[C@@H](O)c1ccccc1; NMeV = CN[C@H](C(=O)O)C(C)C

Data set [1] relates to 8392B cell line. Briefly: cells. It counts as cell-based. Particulars: read-out: Mean IC50 value (nM) ± SD, N=3 unless otherwise indicated, 8392B Nontarget Cell Line, 48 hr exposure, 8392B nontarget cell line, mean ± SD, N=3 unless otherwise indicated.
Data set [2] deals with 8392B cell line. Description: Two hour toxicity: inhibition of DNA synthesis activity, nontarget cell line. In kind it is cell-based. Conditions: read-out: Mean IC50 value (nM) ± SD, N=3 unless otherwise indicated; 8392B Nontarget Cell Line; 2 hr exposure; 8392B nontarget cell line, 2 hr exposure; mean ± SD, N=3 unless otherwise indicated.
The test system of another data set is NCI 60 cell line panel. Briefly: NCI DTP 60 cell line screen assay. Particulars: for Cytotoxicity: ability to actually kill tumor cells versus only inhibiting growth. An excerpt:
An ADC is engulfed by a tumor cell, transported to the endosomes (pH < 6.0) and then into the lysozomes (pH < 4). […] 4) Cancer cells can become resistant to various toxins and drugs through the development of what is termed multi-drug resistance. This process is known to occur through several different mechanisms.

The term IC50 denotes the point on the concentration scale where inhibition reaches its midpoint. As for `CC1=C(CCCNC(=O)C(F)(F)F)C2=C(C)C3(CC3)[C@@](C)(O)C(=O)C2=C1` [compound 268], the IC50 with 8392B cell line [1] was more than 8000 nM.

Regarding `COC(=O)C[S+]([O-])CC1=C(C)C=C2C(=O)[C@](C)(O)C3(CC3)C(C)=C21` (stereo partly drawn) [compound 263], the IC50 in the data set on 8392B cell line [2] is 124000 ± 18000 nM.

Turning to `CC(=O)OC[C@]1(C)C=C2C(=O)[C@](C)(O)C3(CC3)C(C)=C2[C@H]1OC(=O)N(C)CCN(C)C(=O)OC(C)(C)C` [compound 334], in the data set with NCI 60 cell line panel, the “MDR Activity” value is reported as “Yes” and the Cytotoxicity entry was “Yes”.

With `CC1=C(CNS(C)(=O)=O)C2=C(C)C3(CC3)[C@@](C)(O)C(=O)C2=C1` [compound 271], the concentration for half-maximal inhibition (IC50) with 8392B cell line [1] is more than 9300 nM; in the data set with 8392B cell line [2], more than 93000 nM.

As for `CC1=C2C(=C[C@@](C)(C=O)[C@@H]2O)C(=O)[C@](C)(O)C12CC2` [analog 383, (2'R,3'R,6'R)-3',6'-dihydroxy-2',4',6'-trimethyl-7'-oxo-2',3',6',7'-tetrahydrospiro[cyclopropane-1,5'-indene]-2'-carbaldehyde], in the data set with NCI 60 cell line panel, the Cytotoxicity entry is “cytotoxic”.

Turning to `CC1=C(CNC(=O)C2CCCN2)C2=C(C)C3(CC3)[C@@](C)(O)C(=O)C2=C1` (stereo partly drawn) [compound 275], the IC50 with 8392B cell line [1] is more than 6200 nM; in the data set with 8392B cell line [2] it was more than 62000 nM.

On to `CC1=C([C@@H]2CCOS(=O)(=O)N2)C2=C(C)C3(CC3)[C@@](C)(O)C(=O)C2=C1` [compound 259], for which the IC50 with 8392B cell line [2] is more than 85000 nM.

As to `CC1=C(COc2ccc([N+](=O)[O-])cc2)C2=C(C)C3(CC3)[C@@](C)(O)C(=O)C2=C1` [compound 198], the IC50 with 8392B cell line [1] is more than 82000 nM; in the data set with 8392B cell line [2], more than 8200 nM.

Take `CC(=O)OC[C@]1(C)C=C2C(=O)[C@](C)(O)C3(CC3)C(C)=C2[C@H]1OC(=O)N(C)CCN(C)C(=O)OC(C)(C)C` [analog 334, ((2'S,3'R,6'R)-3'-(((2-((tert-butoxycarbonyl)(methyl)amino)ethyl)(methyl)carbamoyl)oxy)-6'-hydroxy-2',4',6'-trimethyl-7'-oxo-2',3',6',7'-tetrahydrospiro[cyclopropane-1,5' - inden]-2' - yl)methylacetate]: the Cytotoxicity result in the data set with NCI 60 cell line panel is listed as “cytotoxic”.

Turning to `CC1=C(CCCOC(=O)[C@@H]2CCCN2C(=O)[C@@H](N)CO)C2=C(C)C3(CC3)[C@@](C)(O)C(=O)C2=C1` [compound 203], the half-inhibitory concentration (IC50) in the data set on 8392B cell line [1] is more than 5500 nM.

`C/C(=C\c1csc(C)n1)[C@@H]1C[C@@H]2O[C@@H]2CCC[C@H](C)[C@H](O)[C@@H](C)C(=O)C(C)(C)[C@@H](O)CC(=O)O1` [Epothilone A, reference compound]: the Cytotoxicity entry in the data set on NCI 60 cell line panel was “not cytotoxic and No”.

As to `CON(CC1=C(C)C=C2C(=O)[C@](C)(O)C3(CC3)C(C)=C21)C(=O)CN` [compound 267], in the data set with 8392B cell line [2], the IC50 is more than 90000 nM.

Turning to `CC(=O)ON(C(C)=O)C(=O)OCCCC1=C(C)C=C2C(=O)[C@](C)(O)C3(CC3)C(C)=C21` [compound 240], the IC50 with 8392B cell line [2] was more than 24000 nM.

Take `CONC(=O)NCC1=C(C)C=C2C(=O)[C@](C)(O)C3(CC3)C(C)=C21` [compound 278]: the 50% inhibitory concentration (IC50) with 8392B cell line [1] is more than 9400 nM; in the data set with 8392B cell line [2], more than 94000 nM.

For the compound `CC1=C2C(=CC(C)(C)C2OC(=O)c2ccc(S(=O)(=O)F)cc2)C(=O)C(C)(O)C12CC2` (stereo not drawn) [compound 222], in the data set with 8392B cell line [2], the IC50 was determined as 9300 nM.

Take `CC(=O)O[C@@H]1C2=C(C)C3(CC3)[C@@](C)(O)C(=O)C2=C[C@@]1(C)CO` [compound 371]: in the data set with NCI 60 cell line panel, the “MDR Activity” value is “Yes” and the Cytotoxicity result was “Yes”.

Take `CC1=C(CN=[N+]=[N-])C2=C(C)C3(CC3)[C@@](C)(O)C(=O)C2=C1` [compound 193]: the IC50 in the data set on 8392B cell line [1] is more than 11000 nM.

`CC1=C2C(=C[C@@](C)(C=O)[C@@H]2O)C(=O)[C@](C)(O)C12CC2` [compound 383]: in the data set with NCI 60 cell line panel, the “MDR Activity” value was “Yes” and the Cytotoxicity result is given as “Yes”.

As to `CC1=C(CCCOC(=O)[C@@H]2CCCN2)C2=C(C)C3(CC3)[C@@](C)(O)C(=O)C2=C1` [compound 196], in the data set on 8392B cell line [1], the IC50 was more than 9200 nM.

Take `CC1=C(COc2ccccc2)C2=C(C)C3(CC3)[C@@](C)(O)C(=O)C2=C1` [compound 199]: the half-inhibitory concentration (IC50) was more than 9300 nM in the data set on 8392B cell line [1] and more than 93000 nM in the data set with 8392B cell line [2].

Regarding `CC1=C(CNO)C2=C(C)C3(CC3)[C@@](C)(O)C(=O)C2=C1` [analog 394, (R)-6'-hydroxy-3'-((hydroxyamino)methyl)-2',4',6'-trimethylspiro[cyclopropane-1,5'-inden]-7'(6'H)-one], in the data set with NCI 60 cell line panel, the Cytotoxicity entry is listed as “cytotoxic”.

Turning to `CC1=C2C(=C[C@@](C)(COS(C)(=O)=O)[C@@H]2O)C(=O)[C@](C)(O)C12CC2` [compound 362], in the data set on NCI 60 cell line panel, the “MDR Activity” value is reported as “Yes” and the Cytotoxicity result was “Yes”.

For `CC[C@H](C)[C@@H]([C@@H](CC(=O)N1CCC[C@H]1[C@H](OC)[C@@H](C)C(=O)N[C@H](C)[C@@H](O)c1ccccc1)OC)N(C)C(=O)[C@@H](NC(=O)[C@@H](NC)C(C)C)C(C)C` [MMAE, N-methylvaline-valine-dolaisoleuine-dolaproine-norephedrine, reference compound] (H-[NMeV]V[Dil][Dolaproine]-X1), in the data set on NCI 60 cell line panel, the “MDR Activity” value is “No” and the Cytotoxicity entry is listed as “No”. For the same compound, in the data set with NCI 60 cell line panel (listed as MMA), the “MDR Activity” value was “not MDR active” and the Cytotoxicity entry was “not cytotoxic”.

For the compound `CC1=C(Cn2cc(F)c(=O)[nH]c2=O)C2=C(C)C3(CC3)[C@@](C)(O)C(=O)C2=C1` [compound 286], the half-maximal inhibitory concentration (IC50) in the data set with 8392B cell line [1] is more than 8800 nM.

For the compound `CC1=C(CCCNC(=O)[C@@H]2CCCN2)C2=C(C)C3(CC3)[C@@](C)(O)C(=O)C2=C1` [compound 202], the 50% inhibitory concentration (IC50) is more than 6200 nM with 8392B cell line [1] and more than 62000 nM with 8392B cell line [2].

With `CC1=C(CN)C2=C(C)C3(CC3)[C@@](C)(O)C(=O)C2=C1` [compound 270], in the data set on 8392B cell line [2], the IC50 is more than 84000 nM.

Regarding `CC1=C(CNC(=O)C(N)CC(C)C)C2=C(C)C3(CC3)[C@@](C)(O)C(=O)C2=C1` (stereo partly drawn) [compound 276], the IC50 in the data set with 8392B cell line [1] was more than 6100 nM; with 8392B cell line [2], more than 61000 nM.

For `CC1=C(CCCOC(=O)[C@@H]2CCCN2C(=O)[C@H](CO)NC(=O)[C@@H](N)CO)C2=C(C)C3(CC3)[C@@](C)(O)C(=O)C2=C1` [compound 209], in the data set on 8392B cell line [2], the concentration for half-maximal inhibition (IC50) is more than 90000 nM.

`COc1ccc(NS(=O)(=O)OCC2=C(C)C=C3C(=O)[C@](C)(O)C4(CC4)C(C)=C32)cc1` [compound 269]: the half-inhibitory concentration (IC50) in the data set with 8392B cell line [1] is more than 7000 nM.

In the case of `CC1=C(COC(=O)CCCCCN2C(=O)C=CC2=O)C2=C(C)C3(CC3)[C@@](C)(O)C(=O)C2=C1` [compound 217], the IC50 in the data set on 8392B cell line [1] is more than 7000 nM.

Take `CC1=C(CCCNC(=O)OCC2=C(C(=O)O)N3C(=O)[C@H](NC(=O)Cc4cccs4)[C@@H]3S(=O)(=O)C2)C2=C(C)C3(CC3)[C@@](C)(O)C(=O)C2=C1` [compound 274]: the IC50 is more than 4500 nM in the data set with 8392B cell line [1] and more than 46000 nM with 8392B cell line [2].

On to `CC1=C(CCCNC(=O)N2CCC(N3CCCCC3)CC2)C2=C(C)C3(CC3)[C@@](C)(O)C(=O)C2=C1` [compound 260], for which, in the data set on 8392B cell line [2], the IC50 was more than 64000 nM.

As to `CC1=C(Cn2c(=O)cc[nH]c2=O)C2=C(C)C3(CC3)[C@@](C)(O)C(=O)C2=C1` [compound 284], the half-maximal inhibitory concentration (IC50) with 8392B cell line [1] is more than 8800 nM.

For the compound `CC(=O)ON(C(C)=O)c1ccc(C(=O)OC[C@]2(C)C=C3C(=O)[C@](C)(O)C4(CC4)C(C)=C3C2O)cc1` (stereo partly drawn) [compound 136], the IC50 with 8392B cell line [2] was more than 6200 nM.

`CC1=C(CNS(N)(=O)=O)C2=CC3(CC3)C(C)(O)C(=O)C2=C1` (stereo not drawn) [compound 283]: in the data set with 8392B cell line [1], the IC50 is more than 9300 nM.

Consider `CC1=C(CSc2nc(O)c3nccnc3n2)C2=C(C)C3(CC3)[C@@](C)(O)C(=O)C2=C1` [compound 153], for which, in the data set with 8392B cell line [2], the IC50 is more than 90000 nM.

Source of the values: patent publication EP4035684A1, “AFFINITY ILLUDOFULVENE CONJUGATES” (AF Chemical LLC, priority 2019, dated 2022).
